Measured values: US20080275134A1, “Methods for Treatment of Retinal Degenerative Disease” (University of Washington, priority 2005, published 2008)

Assays:
RAR = experiment: F9-RARE-lacZ reporter cell line, β-galactosidase activity (DR5 elements); format: cell-based; conditions: 24 hours treatment, micromolar concentrations
Excerpt: 13-cis-RA can isomerize to all-trans-RA and then to 9-cis-RA, both of which are potent ligands of the RA receptor (RAR). 9-cis-RA also binds and activates the retinoid X receptor (RXR). This contributes to the toxicity of the RAR and RXR ligands. It was investigated whether Ret-NH2 can activate these nuclear receptor using reporter-cells as described previously (20). A β-galactosidase activity assay was employed to examine if all-trans-RA, 9-cis-RA, and Ret-NH2 are agonists for these nuclear receptors.
F9-RARE-lacZ cells express endogenous RAR and RXR and were transfected with a construct of lacZ under the control of a minimal promoter and upstream DR5 elements (1). F9-RARE-lacZ cells were treated with different doses of all-trans-RA or Ret-NH2 for 24 hours after which the cells were harvested and the β-galactosidase activity was measured using the soluble substrate o-nitrophenyl β-D-galactopyranoside. The colorless substrate was cleaved by β-galactosidase to yellow colored o-nitrophenol, whose absorbance was measured at 420 nm using a spectrophotometer. The experiment was repeated twice with similar results. The RARE reporter cell line F9-RARE-lacZ (SIL15-RA) was a kind gift from Dr. Michael Wagner (SUNY Downstate Medical Center) and Dr. Peter McCaffery (University of Massachusetts Medical School). […]

[1] = observation of mice for systemic toxicity after oral gavage; format: in vivo; conditions: single doses 0.5 to 100 mg/kg
RXR = target: T1, RXR (Mus musculus, UniProt P28700); experiment: HEK-293 cells with DR1-lacZ reporter and mouse RXRA, β-galactosidase activity; format: cell-based; conditions: 48 hours treatment, micromolar concentrations
T1 construct: The RXR-A ORF was then subcloned into pcDNA3.1 Directional TOPO vector; expressed in transfected cells; host or cells: HEK-293, transient transfection with pcDNA3.1 Directional TOPO
T1 sequence (P28700 1-467): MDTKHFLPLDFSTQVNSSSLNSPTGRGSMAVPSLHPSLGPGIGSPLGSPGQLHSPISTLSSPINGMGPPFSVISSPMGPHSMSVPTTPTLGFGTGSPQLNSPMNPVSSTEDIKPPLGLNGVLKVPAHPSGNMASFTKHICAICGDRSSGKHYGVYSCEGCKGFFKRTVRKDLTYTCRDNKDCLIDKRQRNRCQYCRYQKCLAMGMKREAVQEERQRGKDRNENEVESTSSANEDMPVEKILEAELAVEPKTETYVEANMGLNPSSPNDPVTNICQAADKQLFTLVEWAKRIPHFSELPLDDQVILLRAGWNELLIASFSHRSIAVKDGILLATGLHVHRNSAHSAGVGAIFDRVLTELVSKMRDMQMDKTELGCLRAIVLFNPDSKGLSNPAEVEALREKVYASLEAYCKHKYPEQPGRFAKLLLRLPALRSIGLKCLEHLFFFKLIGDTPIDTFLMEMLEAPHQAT

LRAT = target: T2, LRAT (Bos taurus, UniProt Q9BGL2); experiment: LRAT reaction: formation of all-trans-retinyl esters by RPE microsomes; format: biochemical, bovine; conditions: all-trans-retinol substrate
T2 construct: Purified RPE microsomes were the source of the enzymes; from tissue; host or cells: bovine retinal pigment epithelium microsomes
T2 sequence (Q9BGL2 1-230): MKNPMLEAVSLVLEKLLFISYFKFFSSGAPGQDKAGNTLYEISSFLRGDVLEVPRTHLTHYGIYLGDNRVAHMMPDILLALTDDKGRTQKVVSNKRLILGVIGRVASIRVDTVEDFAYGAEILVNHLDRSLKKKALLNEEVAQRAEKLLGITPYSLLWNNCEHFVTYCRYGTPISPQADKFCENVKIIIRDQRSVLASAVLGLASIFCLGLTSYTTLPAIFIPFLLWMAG
Experimental: To test if 11-cis-retinylamine (11-cis Ret-NH2) affects isomerization and esterification, an in vitro assay was employed. In this assay both of the all-trans-retinyl esters formed in the reaction catalyzed by LRAT and 11-cis-retinol production by isomerase were measured (6). Purified RPE microsomes were the source of the enzymes, and all-trans-retinol was the substrate. […] Inhibition of isomerization by Ret-NH2 is not due to binding of CRALBP or competition with 11-cis-retinol for binding to CRALBP. […] An increased concentration of all-trans-retinol lowered the level of inhibition, as illustrated in FIG. 2B. […] Dixon's and Lineweaver-Burk plots in the standard assay conditions yielded Ki=0.1 μM for Ret-NH2 when all-trans-retinol (KM=0.3 μM) was assumed to be a substrate. […] This estimated value reflects the very potent nature of the inhibition by 11-cis-Ret-NH2.
Materials—Fresh bovine eyes were obtained from a local slaughterhouse (Schenk Packing Co., Inc., Stanwood, Wash.). Preparation of bovine RPE microsomes was performed according to previously described methods (Stecher et al., J Biol Chem 274:8577-85, 1999). […]
Reaction conditions for isomerase and LRAT reaction—The isomerase reaction was performed essentially as described previously (Stecher et al., J Biol Chem 274:8577-85, 1999). […] The average values were used and the standard deviations were calculated.

[2] = tested on: retinyl acetate hydrolase; experiment: direct assay of retinyl acetate hydrolase present in the RPE; format: biochemical; conditions: direct assays
[3] = HPLC and mass spectrometry analysis of liver samples of treated mice; format: in vivo, mouse
Excerpt: Next, the RA oxidation pathway was investigated. […] In addition to secretion, Ret-NH2 might be degraded first by deamination to all-trans-retinol/retinal, which was seen to increase in Ret-NH2 treated cells. […] These observations explain the long-lasting effect of RetNH2, as the amide is stored and hydrolyzed back to the free amine.

retinol dehydrogenases = experiment: direct assay of retinol dehydrogenases present in the RPE; format: biochemical; conditions: direct assays

Row | SMILES | activation of transcription through RAR (DR5 RARE) (RAR) | symptoms of systemic toxicity such as weight loss or gastrointestinal disorder [1] | activation of transcription through RXR (DR1 elements) (RXR) | formation of all-trans-retinyl esters (LRAT activity) (LRAT) | inhibition of retinyl acetate hydrolase [2] | metabolite found in liver [3] | inhibition of retinol dehydrogenases (retinol dehydrogenases)
1 | CC1=C(/C=C/C(C)=C/C=C/C(C)=C/CN)C(C)(C)CCC1 [all-trans-Ret-NH2, all-trans-retinylamine] | does not activate protein transcription | did not exhibit symptoms of systemic toxicity | does not activate protein transcription | – | – | – | –
2 | CC1=C(/C=C/C(C)=C/C=C/C(C)=C/CN)C(C)(C)CCC1 [Ret-NH2, Retinylamine] | – | – | – | does not inhibit | did not inhibited | amidated to N-retinylpalmitamide | did not inhibited
